Data published in US8318980B2, “UV absorbing compounds” (Fujifilm Manufacturing Europe B.V., priority 2007, dated 2012).

Legend:
[1] = Solubility test in C12-C15 alkyl benzoate oil (Finsolv TN); assay type: physicochemical; parameters: key to Solubility in Finsolv TN, dissolved amount (m/m %) 1% / Solubility in Finsolv TN, dissolved amount (m/m %) 5% / Solubility in Finsolv TN, dissolved amount (m/m %) 20% / Solubility in Finsolv TN, dissolved amount (m/m %) 50% / Solubility in Finsolv TN, dissolved amount (m/m %) 80% / Solubility in Finsolv TN, dissolved amount (m/m %) 90%: +=well-soluble; −=not soluble
Description: The aminobutadiene compounds according to the present invention have an optimised solubility for cosmetic oils. […] In Table 3, the solubility of compounds 4, 12 and 13 is shown at various concentrations (+=well-soluble; -=not soluble). The compounds were dissolved at 80° C. while stirring for 1 hour and cooled down to room temperature. After 24 hours the solutions were inspected for any precipitates or crystals.

[2] = Heat stability test (UV-absorption left after storage at 50° C.); assay type: physicochemical; conditions: for Heat stability: UV-absorption left after 5 days: 5 days at 50° C. in the dark; for Heat stability: UV-absorption left after 5 days / Heat stability: UV-absorption left after 50 days / Heat stability: UV-absorption left after 100 days: 1.5% in C12-C15 alkyl benzoate oil (compound 12: 5% in water), 375 nm versus sample stored at room temperature; for Heat stability: UV-absorption left after 50 days: 50 days at 50° C. in the dark; for Heat stability: UV-absorption left after 100 days: 100 days at 50° C. in the dark; for heat stability, in words: in C12-C15 alkylbenzoate oils
Description: Hereto, 1.5% solutions were prepared of compounds 4-11 and 13 in C12-C15 alkyl benzoate oil. […] The solutions were stored in closed vessels at 50° C. in the dark. After 5, 50 and 100 days, the UV-absorption of a diluted sample was measured at 375 nm comparative to a corresponding sample stored at room temperature. The UV-absorption left after each time span is shown in Table 4 indicated by + and − signs. ++ means >95% left, +− implies between 50-95% left, − indicates <50% left.

[3] = Spectral analysis: UV extinction value E at 375 nm; assay type: physicochemical; conditions: 1% solution in DMSO at 375 nm
Excerpt: The aminobutadiene compounds according to the present invention have a typical extinction value E of about 1100 to about 1500 AU/cm of a 1% solution in dimethylsulfoxide (DMSO, Sigma Aldrich ACS spectrophotometric grade) at 375 nm, which is typically the wavelength of the absorption maximum of such compounds. The exact value of E depends on the relative contribution of the core and the R-groups to the molecular weight, while the exact wavelength of the absorption maximum depends on the type of substituents. Spectra were obtained on a HP 8452A diode array spectrophotometer against a DMSO blanc.

[4] = test system: human skin; assay: Skin penetration test in diffusion cell; assay type: in vitro ADME; conditions: human skin, diffusion cell; for penetration through the skin (UV-analysis of collected receptor fluids), in words: 20 hrs
Description: The skin-penetration was evaluated based on the same method described on page 21 of WO2006/009451. FIG. 2 is a drawing of the skin penetration test equipment, wherein (1) indicates the position of the test sample (donor compound), (2) an ⅛″ OD× 1/32″ wall tubing, (3) the receptor input, (4) the receptor compartment and (5) the compound and receptor output that is subjected to analysis.
A compound 3 donor solution was prepared by dissolving 30 mg of compound 3 in 4 ml EtOH and 7 ml phosphate buffer (PBS) at pH 7.4. Compound 4, 6, 7, 8 and 9 donor solutions were prepared by dispersing 80 mg of these compounds in olive oil.
For each compound 4 pieces of human skin (Ø ca 3 cm, mostly epidermis) were applied on a dialysis membrane and mounted into the diffusion cell shown in the FIG. 2. The figure is a schematic drawing of the diffusion cell, wherein is indicated 1: donor compound, 2: receptor compartment, 3: receptor input, 4: compound and receptor output for analysis, 5: ⅛″ OD× 1/32″ wall tubing. The cells were mounted on a temperature controlling and stirring device. The temperature was kept at 37°. The receptor fluid was a PBS buffer. The receptor compartment was stirred magnetically. 400 μl of the donor solution was applied. The receptor fluid flowing at a speed of 1 ml/hr was collected into glass tubes (1 tube/2 hrs). After 20 hrs the penetration experiment was terminated.
Furthermore the skin parts were extracted with DMSO to dissolve any UV-absorber in the epidermis. The extracts were analysed by UV.

Solubility in Finsolv TN, dissolved amount (m/m %) 1% ([1]; 1% m/m, dissolved at 80° C. for 1 hour, cooled to room temperature, inspected after 24 hours)	Solubility in Finsolv TN, dissolved amount (m/m %) 5% ([1]; 5% m/m, dissolved at 80° C. for 1 hour, cooled to room temperature, inspected after 24 hours)	Solubility in Finsolv TN, dissolved amount (m/m %) 20% ([1]; 20% m/m, dissolved at 80° C. for 1 hour, cooled to room temperature, inspected after 24 hours)	Solubility in Finsolv TN, dissolved amount (m/m %) 50% ([1]; 50% m/m, dissolved at 80° C. for 1 hour, cooled to room temperature, inspected after 24 hours)	Solubility in Finsolv TN, dissolved amount (m/m %) 80% ([1]; 80% m/m, dissolved at 80° C. for 1 hour, cooled to room temperature, inspected after 24 hours)	Solubility in Finsolv TN, dissolved amount (m/m %) 90% ([1]; 90% m/m, dissolved at 80° C. for 1 hour, cooled to room temperature, inspected after 24 hours)	solubility in C12-C15 alkyl benzoate oil (Finsolv TN), in words ([1]; all concentrations)	extinction E [3]	Structure (SMILES)	Heat stability: UV-absorption left after 5 days [2]	Heat stability: UV-absorption left after 50 days [2]	Heat stability: UV-absorption left after 100 days [2]	heat stability, in words [2]	penetration into or through the skin (UV analysis of DMSO skin extracts), in words [4]	penetration through the skin (UV-analysis of collected receptor fluids), in words [4]
+	+	+	+	+	+	very well soluble at all concentrations	1400 au/cm	CCCCCCCCOC(=O)C(=CC=CN(CCCCCCN(C=CC=C(C(=O)OCCCCCCCC)S(=O)(=O)c1ccccc1)Cc1ccccc1)CCCCCCN(C=CC=C(C(=O)OCCCCCCCC)S(=O)(=O)c1ccccc1)Cc1ccccc1)S(=O)(=O)c1ccccc1 [Compound 4]	++ (++ means >95% left)	++ (++ means >95% left)	++ (++ means >95% left)	very heat stable	do not penetrate into or through the skin	no penetration
–	–	–	–	–	–	–	–	CCCCCCCCOC(=O)C(=CC=CN(CCN(CCN(C=CC=C(C(=O)OCCCCCCCC)S(=O)(=O)c1ccccc1)Cc1ccccc1)CCN(C=CC=C(C(=O)OCCCCCCCC)S(=O)(=O)c1ccccc1)Cc1ccccc1)Cc1ccccc1)S(=O)(=O)c1ccccc1 [Compound 7]	++ (++ means >95% left)	++ (++ means >95% left)	++ (++ means >95% left)	very heat stable	do not penetrate into or through the skin	no penetration
